Source: US11672788B2, “Histone deacetylase inhibitors for immunomodulation in tumor microenvironment” (GREAT NOVEL THERAPEUTICS BIOTECH & MEDICALS CORPORATION, priority 2020, dated 2023)

How the values were obtained:
HDAC2 = HDAC2 (Homo sapiens (Human), UniProt Q92769); assay: HDACs 1, 2, and 3 enzymatic inhibition (fluorogenic kit, 1 h); assay type: biochemical; details: 37° C.
Method: (§1) HDACs assay was performed according to standard Protocols (Fluorgenic HDACs 1, 2, and 3 assay kit, BPS Bioscience™). […] After 1 h, assay developer was added to the samples and the absorbance was read at fluorogenic wavelength. The relative inhibition to HDACs 1, 2, and 3 activities in each sample was determined.

HDAC1 = HDAC1 (Homo sapiens (Human), UniProt Q13547); assay: as above; assay type: biochemical; details: 37° C.
Method: as §1

HDAC3 = HDAC3 (Homo sapiens (Human), UniProt O15379); assay: as above; assay type: biochemical; details: 37° C.
Method: as §1

MDA-MB-231 = assay: In vitro cytotoxicity MTT assay; assay type: cell-based, human; details: Homo sapiens, MDA-MB-231, 72 h, IC50 ± SD
Method: (§2) Six different cell lines were used, including human breast cancer cell line MDA-MB-231 (6×10^3), MDA-MB-453 (2.4×10^4), SK-BR-3 (6×10^3), human breast epithelial cell line M10 (6×10^3), human gastric carcinoma NCI-N87 (2.4×10^4), and human colorectal adenocarcinoma SW48 (2.4×10^4), and seeded in a 96 well plate. Cell lines were obtained from Bioresource Collection and Research Center, BCRC, Taiwan. […] After 72 h, MTT assay (Cayman™) was used to determine the cellular viability.

MDA-MB-453 = assay: In vitro cytotoxicity MTT assay; assay type: cell-based, human; details: Homo sapiens, MDA-MB-453, 72 h, IC50 ± SD
Method: as §2

SW48 = assay: In vitro cytotoxicity MTT assay; assay type: cell-based, human; details: Homo sapiens, SW48, 72 h, IC50 ± SD
Method: as §2

M10 = assay: In vitro cytotoxicity MTT assay; assay type: cell-based, human; details: Homo sapiens, M10, 72 h, IC50 ± SD
Method: as §2

NCI-N87 = assay: In vitro cytotoxicity MTT assay; assay type: cell-based; details: Homo sapiens, 72 h, IC50 ± SD
Method: as §2

[1] = tested on: histone H3 acetylation (AcH3) in SW48 cells; assay: Western blot of histone H3 acetylation; assay type: cell-based, human; details: SW48, 24 h, FIG. 12c
Method: Human breast cancer MDA-MB-231 cells and human colorectal adenocarcinoma SW48 cells were analyzed. MDA-MB-231 and SW48 were obtained from Bioresource Collection and Research Center (BCRC, Taiwan). MDA-MB-231 and SW48 were grown at 37° C. under humidified air supplemented without CO2 in Leibovitz's L-15 (cat. #11415114, Thermo Fisher Scientific) containing 10% heat inactivated fetal calf serum (Thermo Scientific), 1× concentration of MycoZap antibiotics (cat. #VZA-2011, Lonza). Cells were treated with GNTbm compounds series, Chidamide or Entinostat for different time periods or at varied doses. Cells were treated with indicated doses for 24 h or cells were treated with indicated doses for different time periods. Cell pellets were dissolved with RIPA buffer (cat. #20-188, Merck) with protease and phosphatase inhibitors (cat. #K272, BioVision) and clarified by centrifugation. Equal amounts of total protein were resolved by SDS-PAGE and transferred to polyvinylidene fluoride membranes (cat. #1620177, BIO-RAD). Blots were incubated with primary antibodies against β-actin (cat. #sc-47778, Santa Cruz Biotechnology), Histone 3ac (cat. #61637, Active Motif), and HRP secondary antibodies anti-rabbit (ab6721, Abcam) and anti-mouse (sc-2005, Santa Cruz). Blots were developed using the ECL Western Blotting Substrate (cat. #sc-2048, Santa Cruz Biotechnology) Image blots were analyzed with the iBright FL1000 (Thermo Fisher Scientific) imaging systems.

SW48 cells [2] = assay: Cell apoptosis (sub-G1) by PI flow cytometry; assay type: cell-based, human; details: 72 h; for Induction of apoptosis: SW48, indicated doses (Table 13)
Method: (§3) A PI/RNase staining assay (BD Bioscience™) was performed to reveal the presence of cell cycle arrest and apoptotic cells after treatment with GNTbm compounds, Chidamide and Entinostat. […] After treatment cells were harvested, fixed with 80% ethanol for 24 h, washed with 1×PBS and stained with PI/RNase for 15 min at room temperature. The cells were then analyzed using Flow Cytometer within 1 h.

SW48 cells [3] = assay: Cell cycle arrest by PI flow cytometry; assay type: cell-based, human; details: for Percentage of Cell Cycle Distribution G0/G1 / Percentage of Cell Cycle Distribution G2/M / Percentage of Cell Cycle Distribution S: 72 h; for Cell cycle arrest: SW48, doses of Table 12
Method: as §3

Saturation solubility = assay type: physicochemical; details: ddH2O, 25° C., 90 minutes; mean ± SD; BDL: Below detection limit
Method: Samples of 5 mg of compounds were added to 5 ml volumetric flasks containing ddH2O and shaken at 100 rpm in an incubator at 25° C. for 90 minutes. The resulting suspension was filtered through a 0.22 μm filter. The concentrations of compounds were determined spectrophotometrically at 256 nm. The saturation solubility of each sample was determined in triplicates and the mean value and standard deviation were reported.

Chain of HDAC3 (O15379 whole entry): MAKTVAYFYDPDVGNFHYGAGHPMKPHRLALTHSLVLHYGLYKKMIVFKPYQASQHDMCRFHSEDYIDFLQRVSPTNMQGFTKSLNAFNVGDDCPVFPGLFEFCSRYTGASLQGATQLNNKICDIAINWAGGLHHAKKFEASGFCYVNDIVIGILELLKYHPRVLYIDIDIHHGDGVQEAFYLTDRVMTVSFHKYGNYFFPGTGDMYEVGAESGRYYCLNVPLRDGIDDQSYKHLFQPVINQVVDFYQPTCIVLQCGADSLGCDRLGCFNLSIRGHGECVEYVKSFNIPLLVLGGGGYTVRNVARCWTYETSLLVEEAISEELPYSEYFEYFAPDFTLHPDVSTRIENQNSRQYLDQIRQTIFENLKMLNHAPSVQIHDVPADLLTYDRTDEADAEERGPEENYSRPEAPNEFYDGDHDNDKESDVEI
Chain of HDAC3 (Q9Y618 395-489 partner): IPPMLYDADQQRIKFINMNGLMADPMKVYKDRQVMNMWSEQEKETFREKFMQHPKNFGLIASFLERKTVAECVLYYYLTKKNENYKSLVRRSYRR
Chain of HDAC1 (Q13547 whole entry): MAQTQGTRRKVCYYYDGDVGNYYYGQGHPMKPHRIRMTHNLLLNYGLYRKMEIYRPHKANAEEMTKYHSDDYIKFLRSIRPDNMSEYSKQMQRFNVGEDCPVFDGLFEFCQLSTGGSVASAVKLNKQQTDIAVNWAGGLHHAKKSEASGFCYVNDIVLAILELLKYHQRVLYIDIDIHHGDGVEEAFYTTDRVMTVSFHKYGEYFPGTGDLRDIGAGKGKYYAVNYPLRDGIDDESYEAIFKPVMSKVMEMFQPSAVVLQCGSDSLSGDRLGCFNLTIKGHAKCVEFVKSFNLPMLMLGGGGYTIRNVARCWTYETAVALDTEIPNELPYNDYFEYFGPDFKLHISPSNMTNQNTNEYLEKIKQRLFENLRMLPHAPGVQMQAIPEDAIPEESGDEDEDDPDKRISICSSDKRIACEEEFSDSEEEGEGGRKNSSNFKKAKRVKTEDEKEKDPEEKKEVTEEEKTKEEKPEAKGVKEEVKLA
Chain of HDAC2 (Q92769 whole entry): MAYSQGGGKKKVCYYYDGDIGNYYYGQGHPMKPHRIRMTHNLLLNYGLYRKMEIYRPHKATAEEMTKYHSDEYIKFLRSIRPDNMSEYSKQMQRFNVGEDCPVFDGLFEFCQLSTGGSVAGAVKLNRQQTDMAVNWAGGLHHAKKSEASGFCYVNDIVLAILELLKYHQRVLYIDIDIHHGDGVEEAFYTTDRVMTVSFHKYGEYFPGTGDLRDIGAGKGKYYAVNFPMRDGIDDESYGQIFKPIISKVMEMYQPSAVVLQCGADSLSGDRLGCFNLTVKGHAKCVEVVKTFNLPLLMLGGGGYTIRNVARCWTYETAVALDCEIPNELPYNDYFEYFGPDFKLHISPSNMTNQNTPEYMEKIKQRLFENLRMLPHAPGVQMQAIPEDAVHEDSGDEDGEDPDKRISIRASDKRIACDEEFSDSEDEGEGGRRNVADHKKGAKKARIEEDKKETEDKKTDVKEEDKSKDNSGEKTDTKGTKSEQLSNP

IC50 (HDAC2)	IC50 (HDAC1)	IC50 (HDAC3)	Structure (SMILES)	IC50 (MDA-MB-231)	IC50 (MDA-MB-453)	IC50 (SW48)	IC50 (M10)	IC50 (NCI-N87)	also measured
> 20000 nM	> 20000 nM	> 20000 nM	Cc1ccc(CCCC(=O)Nc2ccc(C(=O)Nc3ccc(C(F)(F)F)cc3N)nc2)cn1 [GNTbm-25, 5-(4-(6-methylpyridin-3-yl)butanamido)-N-(2-amino-4-(trifluoromethyl)phenyl)pyridine-2-carboxamide]	> 50000 nM	19100 ± 2070 nM	> 50000 nM	> 50000 nM	> 50000 nM	
3150 ± 310 nM	9040 ± 600 nM	1740 ± 290 nM	Nc1cc(F)ccc1NC(=O)c1ccc(NC(=O)CCCc2cccnc2)cc1 [GNTbm-37, 4-(4-(pyridin-3-yl)butanamido)-N-(2-amino-4-fluorophenyl)benzamide]	8070 ± 540 nM	4890 ± 340 nM	21300 ± 1640 nM	8850 ± 590 nM	10600 ± 600 nM	
1540 ± 280 nM	370 ± 310 nM	1 ± 0.02 nM	Cc1ccc(CCCC(=O)Nc2ccc(C(=O)Nc3ccc(F)cc3N)nc2)cn1 [GNTbm-08, 5-(4-(6-methylpyridin-3-yl)butanamido)-N-(2-amino-4-fluorophenyl)pyridine-2-carboxamide]	> 50000 nM	3780 ± 500 nM	18400 ± 1000 nM	20800 ± 140 nM	15500 ± 1700 nM	
280 ± 10 nM	690 ± 30 nM	1200 ± 10 nM	Nc1ccccc1NC(=O)c1ccc(NC(=O)C/C=C/c2cccnc2)cc1 [GNTbm-38, 4-((E)-4-(pyridin-3-yl)but-3-enamido)-N-(2-aminophenyl)benzamide]	3550 ± 450 nM	1670 ± 10 nM	1640 ± 5 nM	1990 ± 60 nM	420 ± 80 nM	Histone 3 acetylation expression versus Chidamide [1]: more potent in inducing the histone 3 acetylation expression in SW48 cells than Chidamide; Percentages of Cell Apoptosis (SW48 cells [2]; SW48, 0.125 μM): 8.5%; Percentages of Cell Apoptosis (SW48 cells [2]; SW48, 0.5 μM): 18.3%; Percentages of Cell Apoptosis (SW48 cells [2]; SW48, 1 μM): 24.4%; Percentages of Cell Apoptosis (SW48 cells [2]; SW48, 2 μM): 37.3%; Induction of apoptosis (SW48 cells [2]): potent in inducing apoptosis in SW48 cells; Percentage of Cell Cycle Distribution G0/G1 (SW48 cells [3]; SW48, 0.125 μM): 63.3%; Percentage of Cell Cycle Distribution G2/M (SW48 cells [3]; SW48, 0.125 μM): 17.4%; Percentage of Cell Cycle Distribution S (SW48 cells [3]; SW48, 0.125 μM): 19.3%; Percentage of Cell Cycle Distribution G0/G1 (SW48 cells [3]; SW48, 0.5 μM): 61.8%; Percentage of Cell Cycle Distribution G2/M (SW48 cells [3]; SW48, 0.5 μM): 27.8%; Percentage of Cell Cycle Distribution S (SW48 cells [3]; SW48, 0.5 μM): 10.4%; Percentage of Cell Cycle Distribution G0/G1 (SW48 cells [3]; SW48, 1 μM): 57.7%; Percentage of Cell Cycle Distribution G2/M (SW48 cells [3]; SW48, 1 μM): 29.8%; Percentage of Cell Cycle Distribution S (SW48 cells [3]; SW48, 1 μM): 12.5%; Percentage of Cell Cycle Distribution G0/G1 (SW48 cells [3]; SW48, 2 μM): 53.9%; Percentage of Cell Cycle Distribution G2/M (SW48 cells [3]; SW48, 2 μM): 32.5%; Percentage of Cell Cycle Distribution S (SW48 cells [3]; SW48, 2 μM): 13.6%; Cell cycle arrest (SW48 cells [3]): significantly induced cell cycle arrest in the G2/M phase in SW48 cells
1420 ± 190 nM	480 ± 30 nM	2980 ± 80 nM	Cc1ccc(CCCC(=O)Nc2ccc(C(=O)Nc3ccccc3N)nc2)cn1 [GNTbm-19, 5-(4-(6-methylpyridin-3-yl)butanamido)-N-(2-aminophenyl)pyridine-2-carboxamide]	5690 ± 1700 nM	1810 ± 20 nM	8730 ± 240 nM	2890 ± 120 nM	4300 ± 1400 nM	
360 ± 20 nM	140 ± 2 nM	1 ± 0.04 nM	Nc1ccccc1NC(=O)c1ccc(NC(=O)C/C=C/c2cccnc2)cn1 [GNTbm-05, 5-((E)-4-(pyridin-3-yl)but-3-enamido)-N-(2-aminophenyl)pyridine-2-carboxamide]	1660 ± 20 nM	1580 ± 3 nM	1640 ± 20 nM	430 ± 30 nM	280 ± 10 nM	Histone 3 acetylation expression versus Chidamide [1]: more potent in inducing the histone 3 acetylation expression in SW48 cells than Chidamide; Percentages of Cell Apoptosis (SW48 cells [2]; SW48, 0.125 μM): 9.0%; Percentages of Cell Apoptosis (SW48 cells [2]; SW48, 0.5 μM): 17.9%; Percentages of Cell Apoptosis (SW48 cells [2]; SW48, 1 μM): 27.2%; Percentages of Cell Apoptosis (SW48 cells [2]; SW48, 2 μM): 42.4%; Induction of apoptosis (SW48 cells [2]): potent in inducing apoptosis in SW48 cells; Percentage of Cell Cycle Distribution G0/G1 (SW48 cells [3]; SW48, 0.125 μM): 61.5%; Percentage of Cell Cycle Distribution G2/M (SW48 cells [3]; SW48, 0.125 μM): 18.7%; Percentage of Cell Cycle Distribution S (SW48 cells [3]; SW48, 0.125 μM): 19.8%; Percentage of Cell Cycle Distribution G0/G1 (SW48 cells [3]; SW48, 0.5 μM): 59.2%; Percentage of Cell Cycle Distribution G2/M (SW48 cells [3]; SW48, 0.5 μM): 22.2%; Percentage of Cell Cycle Distribution S (SW48 cells [3]; SW48, 0.5 μM): 18.6%; Percentage of Cell Cycle Distribution G0/G1 (SW48 cells [3]; SW48, 1 μM): 55.4%; Percentage of Cell Cycle Distribution G2/M (SW48 cells [3]; SW48, 1 μM): 31.8%; Percentage of Cell Cycle Distribution S (SW48 cells [3]; SW48, 1 μM): 12.8%; Percentage of Cell Cycle Distribution G0/G1 (SW48 cells [3]; SW48, 2 μM): 53.6%; Percentage of Cell Cycle Distribution G2/M (SW48 cells [3]; SW48, 2 μM): 34.6%; Percentage of Cell Cycle Distribution S (SW48 cells [3]; SW48, 2 μM): 11.8%; Cell cycle arrest (SW48 cells [3]): significantly induced cell cycle arrest in the G2/M phase in SW48 cells
> 20000 nM	> 20000 nM	> 20000 nM	Nc1cc(C(F)(F)F)ccc1NC(=O)c1ccc(NC(=O)C/C=C/c2cccnc2)cc1 [GNTbm-33, 4-((E)-4-(pyridin-3-yl)but-3-enamido)-N-(2-amino-4-(trifluoromethyl)phenyl)benzamide]	1620 ± 20 nM	1940 ± 220 nM	1790 ± 30 nM	2010 ± 90 nM	1750 ± 20 nM	
390 ± 20 nM	100 ± 20 nM	9 ± 10 nM	Cc1ccc(/C=C/CC(=O)Nc2ccc(C(=O)Nc3ccccc3N)nc2)cn1 [GNTbm-06, 5-((E)-4-(6-methylpyridin-3-yl)but-3-enamido)-N-(2-aminophenyl)pyridine-2-carboxamide]	3870 ± 700 nM	1590 ± 10 nM	2320 ± 80 nM	1950 ± 30 nM	2200 ± 30 nM	Saturation Solubility (Saturation solubility): BDL
> 20000 nM	> 20000 nM	1 nM	Nc1cc(C(F)(F)F)ccc1NC(=O)c1ccc(NC(=O)C/C=C/c2cccnc2)cn1 [GNTbm-11, 5-((E)-4-(pyridin-3-yl)but-3-enamido)-N-(2-amino-4-(trifluoromethyl)phenyl)pyridine-2-carboxamide]	1710 ± 40 nM	2280 ± 60 nM	2600 ± 450 nM	1650 ± 200 nM	1870 ± 40 nM	
> 20000 nM	> 20000 nM	> 20000 nM	Cc1ccc(/C=C/CC(=O)Nc2ccc(C(=O)Nc3ccc(C(F)(F)F)cc3N)nc2)cn1 [GNTbm-12, 5-((E)-4-(6-methylpyridin-3-yl)but-3-enamido)-N-(2-amino-4-(trifluoromethyl)phenyl)pyridine-2-carboxamide]	> 50000 nM	15800 ± 3900 nM	> 50000 nM	38500 ± 5900 nM	> 50000 nM	
